According to PubChem BioAssay (NCI):
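Each compound was tested at five concentrations against cells in 96-well plates for 48 hours. Abbreviation: GI50, concentration required for 50% inhibition of growth. TGI: total growth inhibition.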

What was measured:
Assay in all cases: growth of human tumour cells (NCI), 48 h
CCRF-CEM leukemia = test system: CCRF-CEM leukemia
COLO 205 colon = test system: COLO 205 colon
OVCAR-4 ovarian = test system: OVCAR-4 ovarian
OVCAR-3 ovarian = test system: OVCAR-3 ovarian
IGROV1 ovarian = test system: IGROV1 ovarian
RPMI-8226 leukemia = test system: RPMI-8226 leukemia
SK-MEL-2 melanoma = test system: SK-MEL-2 melanoma
A549 NSCLC = test system: A549 NSCLC
CAKI-1 renal = test system: CAKI-1 renal
HCT-15 colon = test system: HCT-15 colon

SMILES	GI50 (CCRF-CEM leukemia)	TGI (CCRF-CEM leukemia)	GI50 (COLO 205 colon)	TGI (COLO 205 colon)	GI50 (OVCAR-4 ovarian)	TGI (OVCAR-4 ovarian)	GI50 (OVCAR-3 ovarian)	TGI (OVCAR-3 ovarian)	GI50 (IGROV1 ovarian)	TGI (IGROV1 ovarian)	GI50 (RPMI-8226 leukemia)	TGI (RPMI-8226 leukemia)	GI50 (SK-MEL-2 melanoma)	TGI (SK-MEL-2 melanoma)	GI50 (A549 NSCLC)	TGI (A549 NSCLC)	GI50 (CAKI-1 renal)	TGI (CAKI-1 renal)	GI50 (HCT-15 colon)	TGI (HCT-15 colon)
CN(C)CCCOc1ccc(NC2=C(Cl)C(=O)C(Nc3ccc(OCCCN(C)C)cc3)=C(Cl)C2=O)cc1	0.272 µM	2.95 µM	0.239 µM	0.589 µM	0.14 µM	0.27 µM	0.187 µM	0.353 µM	0.544 µM	1.11 µM	2.01 µM	5.22 µM	1.66 µM	3.31 µM	0.731 µM	2.12 µM	1.91 µM	3.53 µM	0.411 µM	0.958 µM
CC(=O)Nc1cccc(C#Cc2cncnc2Nc2ccc(OCc3cccc(F)c3)c(Cl)c2)c1	10.2 µM	> 25 µM	9.17 µM	> 25 µM	7.6 µM	> 25 µM	7.53 µM	> 25 µM	4.49 µM	> 25 µM	12.7 µM	> 25 µM	6.43 µM	> 22.8 µM	5.87 µM	> 25 µM	3.3 µM	> 25 µM	7.41 µM	> 25 µM
CN1CCCc2nc3ccccc3n2C1	–	> 100 µM	–	> 100 µM	–	> 100 µM	–	> 100 µM	–	> 100 µM	–	68.8 µM	–	> 100 µM	–	> 100 µM	–	> 100 µM	–	> 100 µM
S=C(Sc1ccc(Cl)cc1)Sc1ccc(Cl)cc1	0.409 µM	2.56 µM	2.29 µM	5.5 µM	3.03 µM	10.9 µM	1.74 µM	3.12 µM	1.81 µM	3.47 µM	1.09 µM	3 µM	4.61 µM	16.7 µM	2.99 µM	13.7 µM	2.96 µM	10.3 µM	1.77 µM	4.71 µM
